{
  "source": "patent US9290541B2",
  "about": "“TCL1 peptides for immunotherapy” (Board of Regents, The University of Texas System, priority 2011, dated 2016)",
  "key": {"CD4+ and CD8+ T cells": {"system": "CD4+ and CD8+ T cells", "test": "Intracellular cytokine assay (IFN-γ) of peptide-stimulated T cell lines", "format": "cell-based, human", "settings": "T cell lines from HLA-A2+ normal donors", "description": "FIGS. 3A-E: TCL1-specific cytotoxic T cells can be generated from normal donors. (FIG. 3A) PBMCs from HLA-A2^+ normal donors were stimulated with overlapping 15-mer peptides spanning the entire length of the TCL1 protein (see Table 2). T cells from each condition were washed and incubated with autologous CD3-depleted PBMC as antigen-presenting cells (APC) in the presence or absence of the corresponding peptide. After 18 hours, the production of IFN-γ was determined in the supernatants by ELISA. Asterisk indicates significant IFN-γ production compared with control (P<0.05). Representative data from one of three normal donors tested is shown. (FIG. 3B) T cell lines generated from HLA-A2^+ normal donors using TCL165-79 peptide were incubated with APC in the presence or absence of the TCL165-79 peptide or control HIV Gag77-85 peptide, and intracellular cytokine assay was performed. […] IFN-γ production was determined as in (FIG. 3A). […]\nFlow cytometry. […] After two washes, samples were acquired on a FACS Calibur (BD Biosciences) and analyzed using Cell Quest Pro (BD Biosciences) or FlowJo (Tree Star, Inc., Ashland, Oreg.) software. […] For tetramer staining, PE-conjugated TCL171-78 tetramer or HIV Gag77-85 tetramer and FITC-conjugated mouse anti-human CD8 antibody were mixed with the cells in 50 μl volume for 30 minutes at room temperature, washed twice, and analyzed by a flow cytometry."}, "T2 cells": {"system": "T2 cells", "test": "4-hour 51Cr-release cytotoxicity assay with peptide-pulsed T2 cells", "format": "cell-based, human", "description": "FIGS. 3A-E: TCL1-specific cytotoxic T cells can be generated from normal donors. (FIG. 3A) PBMCs from HLA-A2^+ normal donors were stimulated with overlapping 15-mer peptides spanning the entire length of the TCL1 protein (see Table 2). T cells from each condition were washed and incubated with autologous CD3-depleted PBMC as antigen-presenting cells (APC) in the presence or absence of the corresponding peptide. After 18 hours, the production of IFN-γ was determined in the supernatants by ELISA. Asterisk indicates significant IFN-γ production compared with control (P<0.05). Representative data from one of three normal donors tested is shown. (FIG. 3B) T cell lines generated from HLA-A2^+ normal donors using TCL165-79 peptide were incubated with APC in the presence or absence of the TCL165-79 peptide or control HIV Gag77-85 peptide, and intracellular cytokine assay was performed. The percentage of CD4^+ and CD8^+ T cells producing IFN-γ are shown. (FIG. 3C) TCL165-79 peptide-specific T cells were incubated with T2 cells or EBV-transformed B lymphoblastoid cell lines (IHW1003, IHW1019, IHW1089, and IHW1135) mismatched at their MHC class I locus in the presence of the TCL165-79 peptide or control HIV Gag77-85 peptide. IFN-γ production was determined as in (FIG. 3A). The HLA-A alleles for each of the cell lines are shown. (FIG. 3D, FIG. 3E) A 4-hour ^51Cr-release cytotoxicity assay was performed. TCL165-79 peptide-specific T cells were incubated with T2 cells alone or T2 cells pulsed with TCL165-79 peptide or control HIV Gag77-85 peptide, at various effector:target ratios. For MHC blocking assay, an effector:target ratio of 20:1 was used in the presence or absence of isotype control antibody or blocking antibodies against MHC class I, MHC class II, HLA-A2, or HLA-B and C. All cytotoxicity assays were performed in triplicate wells and mean and standard deviation are shown.\nFIGS. 4A-D: TCL171-78 is the minimal HLA-A*0201-binding peptide. (FIG. 4A) TCL165-79 peptide-specific T cells derived from HLA-A2^+ normal donors were incubated in the presence or absence of T2 cells and TCL165-79 derived truncated peptides (SEQ ID NOS:1-2; SEQ ID NOS:12-17; SEQ ID NOS:3-11; and SEQ ID NO:18) Flu matrix peptide (FMP58-66) and Gag77-85 peptide were used as controls. After 18 hours, the production of IFN-γ was determined in the supernatants by ELISA. (FIG. 4B) T2 cells were incubated with TCL165-79-derived truncated peptides (SEQ ID NOS:1-2; SEQ ID NOS:12-17; SEQ ID NOS:3-11; and SEQ ID NO:18), and the HLA-A2 binding affinity of each peptide was determined by flow cytometry. The T2 binding index was calculated as described in Materials and Methods. […] (FIG. 4D) TCL165-79 peptide-specific CD8^+ T cells or irrelevant T-cell line were stained with TCL171-78 or HIV Gag77-85 tetramers and analyzed by flow cytometry. […]\nFIGS. 6A-E: TCL171-78 peptide-specific T cells can be generated from lymphoma patients. (FIG. 6A) PBMC and tumor-infiltrating lymphocytes (TILs) derived from HLA-A2^+ patients with chronic lymphocytic leukemia (CLL) or follicular lymphoma (FL) were stimulated in vitro with TCL165-79 After five stimulations, IFN-γ production in response to TCL165-79 peptide was determined as in FIG. 3A. […]"}},
  "data": [
    {"sequence": "TQIGPSLLPIMWQLY [TCL165-79]", "values": [
      {"measurement": "IFN-γ production by CD4+ and CD8+ T cells in response to peptide", "setting": "CD4+ and CD8+ T cells", "value": "CD8^+ but not CD4^+ T cells produced IFN-γ"},
      {"measurement": "lysis of peptide-pulsed T2 cells by patient-derived T cells", "setting": "T2 cells; T cells from CLL and FL patients", "value": "at high efficiency"},
      {"measurement": "lysis of peptide-pulsed T2 cells by TCL165-79 peptide-reactive T cells", "setting": "T2 cells; normal donor-derived T cells", "value": "significant lysis"}
    ]}
  ]
}
